This is an account of results in patent US12503476B2, “Ring-fused 2-pyridone compounds, methods for preparation thereof and their use in the treatment and/or prevention of a disease involving gram-positive bacteria” (QURETECH BIO AB, priority 2020, dated 2025).

≈ marks a conversion by molar mass, not a printed value. Like-named read-outs stand apart in the source and are kept apart here.

One assay relates to E. faecalis OG1RF. Description: Combined activity with gentamicin, vancomycin or ampicillin, E. faecalis OG1RF. As to conditions: gentamicin 16 μg/ml. It is filed as cell-based, Enterococcus faecalis. The protocol:
(§1) […]. The concentrations used in the experiments with E. faecalis OG1RF were 16 μg/ml gentamicin, 1 μg/ml vancomycin or 1 μg/ml ampicillin. In experiments where combinations were tested against MRSA 1369, 0.05 μg/ml gentamicin, 1 μg/ml vancomycin or 16 μg/ml ampicillin was used.
(§2) Bacterial cultures (190 μl) at a starting OD=0.001 at OD600 were incubated together with either subinhibitory concentrations of gentamicin/vancomycin/ampicillin or compound alone, or a combination of the two. The cultures (200 μl) were incubated at 37° C. for 24 h. A control sample without compound and gentamicin/vancomycin/ampicillin but containing compound vehicle (DMSO) and gentamicin/vancomycin/ampicillin vehicle (MQ water) was performed the same way. After 24 h, the effect on bacterial growth compared to untreated control samples was determined by measuring optical density at 600 nm with a spectrophotometer.
[…]. MIC/MBC values for the compounds administered alone are also shown for comparison. Unless otherwise stated, the compound was provided in a concentration of 1 μM.

A further assay has as its system E. faecalis. The assay is described as follows: Minimum Inhibitory Concentration (MIC) assay, E. faecalis. The format is cell-based, Enterococcus faecalis. Conditions: for MIC: Enterococcus faecalis, first figure of MIC/MBC, read-out: MIC for E. faecalis. As for the experimental part:
(§3) The cultures (200 μl) were incubated at 37° C. for 24 h. […] The MIC was measured in micromolar concentration, i.e. μM. Objectively, this was determined by measuring the optical density (i.e. OD) of the test cultures at 600 nm using a spectrophotometer. As used herein, OD600 stands for optical density at a wavelength of 600 nm (i.e. 600 nanometers).

For assay [1], the system named is MRSA. Description: Minimum Bactericidal Concentration (MBC) assay, MRSA. As to conditions: Staphylococcus aureus, MRSA, read-out: MBC for MRSA, Table 3; compound alone, no antibiotic; MIC cultures plated on BHI; second figure of MIC/MBC; n.d. = activity not observed at the concentrations tested.
Assay [2] has as its system MRSA. The assay is described as follows: Minimum Inhibitory Concentration (MIC) assay, MRSA. Conditions: Staphylococcus aureus, MRSA, 24 h, Table 3, compound alone, no antibiotic, 37° C., OD600, first figure of MIC/MBC, n.d. = activity not observed at the concentrations tested, read-out: MIC for MRSA. It is filed as cell-based, Methicillin-resistant Staphylococcus aureus. As for the experimental part:
as §3

The next assay has as its system MRSA 1369. Description: Combined activity with gentamicin, vancomycin or ampicillin, MRSA 1369. The format is cell-based, Methicillin-resistant Staphylococcus aureus. Conditions: subinhibitory compound 1-4 μM, OD600 24 h. As for the experimental part: as §1, §2
Setting [3] is: subinhibitory compound 1-4 μM, OD600 24 h.

Regarding `O=C(O)C12C[C@@H](c3cc(Cl)cc(Cl)c3)C1Sc1c(C3CC3)c(Cc3cccc4ccccc34)cc(=O)n12` (some centres unmarked) [Example 15], the “OD600 at 24 h when combined with gentamicin” value in the assay on E. faecalis OG1RF (compound 1 μM) is recorded as “OD600 = 0”. Moreover, the “Synergistic effect when combined with gentamicin” value in the assay on E. faecalis OG1RF (compound 1 μM, 24 h, n.d. = activity not observed) is reported as “Yes”. In addition, in the assay on E. faecalis OG1RF (setting [3]), the “E. faecalis activity, combination with gentamicin compared to gentamicin alone, compound alone and comparative example alone” value is recorded as “much larger extent”. Moreover, the “E. faecalis activity, combination with gentamicin compared to the combination of the comparative example and gentamicin” value in the assay with E. faecalis OG1RF (setting [3]) is given as “much larger extent”. In addition, the minimum inhibitory concentration (MIC) with E. faecalis (24 h, Table 3, compound alone, no antibiotic, 24 h, 37° C., OD600, n.d. = activity not observed at the concentrations tested) worked out at 3 µM (≈ 1.65 µg/mL); in the assay with E. faecalis (Table 4, compound administered alone, n.d. = activity not observed), 3 µM (≈ 1.65 µg/mL); in the assay with MRSA [2], 2 µM (≈ 1.1 µg/mL). Further, in the assay with E. faecalis (conclusion from Table 3 (E. faecalis and MRSA), compound alone), the “Growth inhibition of the pathogen of interest compared to the compound of Example 14 in WO 2018/229141” value is listed as “substantially similar extent or to a higher extent”. In the assay with MRSA [1], the minimal bactericidal concentration (MBC) was found to be 4 µM (≈ 2.19 µg/mL). The “MRSA activity, combination with ampicillin compared to ampicillin alone or compound alone” value with MRSA 1369 (ampicillin 16 μg/ml) is reported as “much larger extent”. Also, in the assay on MRSA 1369 (vancomycin 1 μg/ml), the “MRSA activity, combination with vancomycin compared to vancomycin alone or compound alone” value was “much larger extent”.
